Where two headings read alike, the source gives them in different places.
Tests used:
[1] = system: corticosterone-injured PC12 cells; assay: Protective effects on corticosterone-injured PC12 cells (MTT); assay type: cell-based, rat; settings: 24 h after treatment; for PR (protection rate): 200 μM corticosterone
Description: PC12 cells were purchased from American Type Culture Collection and were maintained in DMEM medium supplemented with penicillin (100 unit/ml), streptomycin (100 μg/ml), 5% fetal bovine serum (FBS), and 10% horse serum at 37 °C in humidified atmosphere with 5% CO2. The detailed procedures were performed referring to the reported literatures. Briefly, PC12 cells of logarithmic growth phase were collected, re-suspended and then seeded at a density of 1 × 10^5 cells per well in 96-well plates and cultured in the DMEM medium with 5% horse serum, 10% FBSfor 24 h.
After incubation with compounds, 20 μl of 5 mg/ml MTT solution was added to each well and cultured at 37 °C for 2 h–4 h. Then, the culture medium was removed, and 150 μl dimethyl sulfoxide(DMSO) was added to each well for 15 min at room temperature. The absorbance of each well was measured at 570 nm using a microplate reader. The protective rates (PR) were calculated according to equation (1).

HEK293 cells = assay: Cytotoxicity on HEK293 cells (MTT); assay type: cell-based, human; settings: Homo sapiens, HEK293, 100μM, after treatment; read-out: IR (inhibitory rate) HEK293
Description: (§1) Human normal hepatic L02 cells, human embryonic kidney cell line 293 cells (HEK293) and Rattus myoblast cell line H9C2 cells were respectively seeded in 96-well plates at a density of 4 × 10^3 cells per well and cultured in the 1640 or DMEM medium, with the supplement of 10% fetal bovine serum, penicillin (100 unit/ml), streptomycin (100 μg/ml) in a humidified incubator with 5% CO2 for 24 h. […] The cytotoxicities of the compounds were evaluated by MTT method.

L02 cells = assay: Cytotoxicity on L02 cells (MTT); assay type: cell-based, human; settings: Homo sapiens, L02, 100μM, after treatment; read-out: IR (inhibitory rate) L02
Description: as §1

[2] = PAMPA-BBB permeation assay; assay type: in vitro ADME; settings: for Papp at 18 h, 100 μg/mL: Pe ± SD (n = 3), pH 7.4
Description: Parallel artificial membrane permeation assay (PAMPA) was performed according to the literature[44] with minor modification. The PVDF (Poly(vinylidene fluoride)) membrane of the donor plate was coated with PBL (Polar Brain Lipid, Avanti, USA) in dodecane (4 μL of 20 mg/mL PBL in dodecane) and the acceptor well was filled with 350 μL of PBS/EtOH (70/30, v/v, pH 7.4) buffer (VD). The tested compound was dissolved in DMSO and then diluted with PBS/EtOH (70/30, v/v, pH 7.4) buffer to reach the concentration of 100 μg/mL in the donor well.
200 μL of the donor solution was added to the donor wells (VA) and the donor filter plate was carefully put on the acceptor plate so that the coated membrane contacted both donor solution and acceptor buffer. Test compound diffused from the donor well through the lipid membrane (area = 0.28 cm^2) to the acceptor well. The concentration of the drug in both donor and the acceptor wells was assessed after 18 hours of incubation at room temperature in triplicate using Varioskan Flash Multimode Reader (Thermo Scientific) at the maximum absorption wavelength of tested compound. Concentration of the compound was calculated from the standard curve and expressed as the permeability (Pe) according to Equation (2):

SD rats [3] = assay: Forced swim test; assay type: in vivo, rat; settings: ig. 32 mg/kg/day, days 2–15
Description: The detailed procedures were performed according to our previous studies. Briefly, each SD rat was placed in a vertical Plexiglas cylinder (height 50 cm; diameter 20 cm) containing 18 cm height of water at 25 ± 2 °C and was forced to swim individually for 15 min on1st day. From 2nd day to 15th day, the rats were intragastrically administered compound 6a-1 or control drugs at dosage of 32 mg/kg/day. On the 2nd day and 15th day, 30 minutes after drug treatment, each rat was placed again into water and forced to swim for 6 min. The rat behavior was recorded by a video camera placed directly facing cylinders. The duration of immobility during the last 4 minutes was analyzed by Xeye Animal behavior analysis system (Xeye Aba V3.2). The rat was considered as immobile when its moving speed was less than 20 mm/s. The dosage of is 32 mg/kg every day. The water in the cylinder was changed each trial. After each exposure, animals were partially dried with a towel and returned to their home cages. All tests were performed in a quiet room.

SD rats [4] = assay: Open field locomotor activity; assay type: in vivo, rat; settings: ig. 32 mg/kg/day, days 2–15, vs untreated rats
Description: The detailed procedures were performed according to our previous studies. In brief, each SD rat was placed at the center of the open field (50 × 50 cm^2 chamber, 50-cm-high walls, with a 25 cm^2 area in the middle of floor defined as the central square) for 6 min in a quiet room. The animals were gently placed in the center of the platform and were allowed to explore the surroundings. A camera was installed above the center of the field. Immediately after a rat was placed at the center in the open field, the movements and position of the animals were recorded and registered automatically by computerized system. Next test was performed after cleaning the chamber. The traveled tracks of rats were recorded for 6 minutes and the videos of the last 4 minutes were analyzed also by Xeye Animal behavior analysis system.

[5] = system: corticosterone injured PC12 cells; assay: Intracellular GSH level; assay type: cell-based, rat; settings: 200 μM corticosterone and 5 μM drug; vehicle-treated PC12 cells = 100%
Description: The GSH level was measured by reference of literatures’ methods[55][56] with appropriate revision. […] After being incubated on ice for 10 min, the lysate was centrifuged at 10 000 rpm for 10 min. […] The mixture was centrifuged at 3000 × g for 10 min at 4 °C, and then 200 μL of the resulting supernatant was mixed with 1 mL of phosphate buffer (100 mM, pH 8.0) and 50 μL of 5, 5-dithiobis-2-nitrobenzoic acid (DTNB).

[6] = system: corticosterone injured PC12 cells; assay: Real-time PCR BDNF mRNA level; assay type: cell-based, rat; settings: 200 µM corticosterone and 5 µM drug
rat hippocampus = assay: Cell survival, proliferation and maturation in the rat hippocampus; assay type: in vivo; settings: rats, 21 days
Description: The detailed procedures were performed according to the reported literatures.
Wistar rats were used herein. Agomelatine were purchased from Dalian Meilun Biotech Company. […] For cell proliferation study, BrdU (200 mg/kg i.p.) was administered 2 h before perfusion. For cell maturation and survival studies, animals received five injections of BrdU (75 mg/kg, 2 h intervals) the first day of treatment and were killed 21 days later. […] was randomly selected 8 visual fields for statistical analysis.

C57 mice = assay: Acute toxicity evaluation with H&E histology; assay type: in vivo, mouse
Description: Ten mice of each group were sacrificed on the 7th day, their heart, liver, spleen, lung and kidney were harvested and H&E histological staining was performed. Then the stained tissues were observed by two pathologists in a blinded manner.

5-HT2C receptor = biological target: T1, 5-HT2C receptor (Homo sapiens, UniProt P28335); assay: FLIPR assay for 5-HT2C antagonism; assay type: cell-based; settings: for inhibition at 100 µM: read-out: Inhibition 5-HT2C
T1 sequence (P28335 33-458): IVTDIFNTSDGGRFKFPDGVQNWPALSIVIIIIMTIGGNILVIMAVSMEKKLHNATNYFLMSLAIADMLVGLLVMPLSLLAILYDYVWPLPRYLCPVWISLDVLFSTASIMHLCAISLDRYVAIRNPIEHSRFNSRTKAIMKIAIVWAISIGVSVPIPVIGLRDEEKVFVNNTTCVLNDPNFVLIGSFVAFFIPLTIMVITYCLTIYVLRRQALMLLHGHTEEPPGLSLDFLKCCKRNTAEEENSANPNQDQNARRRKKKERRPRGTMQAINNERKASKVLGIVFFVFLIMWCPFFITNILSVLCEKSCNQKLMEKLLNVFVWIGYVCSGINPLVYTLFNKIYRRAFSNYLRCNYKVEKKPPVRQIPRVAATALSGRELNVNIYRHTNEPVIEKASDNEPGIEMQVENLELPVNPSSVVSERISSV
Description: Seed cells at the density of 10 K cell/well, 37 °C, 5% CO2 incubate for 16–24 hours, then loading cells with 30 ul of Calcium 5 and 37 °C, 5% CO2 incubate for 1 hour. After transfer compound to compound plate with 30 ul Assay Buffer by Echo, add 15 ul/well of compound, incubate for 10 mins.

Row | SMILES | PR (protection rate) ([1]; 5 μM) [%] | PR (protection rate) ([1]; […]) [%] | inhibition at 100 µM (HEK293 cells) [%] | inhibition at 100 µM (L02 cells) [%] | CNS(+/−) prediction of blood-brain barrier penetration [2] | Papp at 18 h, 100 μg/mL [2] [×10⁻⁶ cm/s] | mean immobility time reduced compared to the model group (SD rats [3]) [%] | improved travelled distance (SD rats [4]) [%] | GSH level [5] [%] | BDNF mRNA level increase compared with corticosterone-injured group [6] [%] | expression of PSA-NCAM compared with vehicle-treated group (rat hippocampus; i.p. 40 mg/kg) | heart histology (H&E) (C57 mice; 140 mg/kg/day, 7th day) | liver histology (H&E) (C57 mice; 140 mg/kg/day, 7th day) | spleen histology (H&E) (C57 mice; 140 mg/kg/day, 7th day) | other results
1 | COc1ccc2c(c1)C(CCNC(C)=O)=NCC2.O=C(O)C(=O)O [6a-1, N-(2-(7-Methoxy-3,4-dihydroisoquinolin-1-yl)ethyl) acetamide oxalate] | 42.1 | 37.1 | < 20 | < 20 | CNS+ | 16.7 ± 0.41 | 62.5 | 131.2 | 87.7 | 42.8 | reduced the expression of PSA-NCAM | cardiac myocytes were fragmented and arranged promiscuously | hepatic cords were distinctly clear | unchanged | number of BrdU-labeled neuron cells (proliferation) (rat hippocampus; i.p. 40 mg/kg once daily): remarkably increased; number of BrdU-labeled neuron cells (survival) (rat hippocampus; i.p. 40 mg/kg once daily): remarkably increased; number of NeuN cells compared with vehicle-treated group (rat hippocampus; i.p. 40 mg/kg): significant (P < 0.001) increase; number of PSA-NCAM-labeled cells relative to Agomelatine group (rat hippocampus; i.p. 40 mg/kg): approximately three-fold decrease; kidney histology (H&E) (C57 mice; 140 mg/kg/day, 7th day): did not show any significant difference compared with normal; lung histology (H&E) (C57 mice; 140 mg/kg/day, 7th day): did not show any significant difference compared with normal; clinical signs of toxicity (C57 mice; intragastric 140 mg/kg/day, 7-day administration): No visible clinical signs of toxicity; IC50 (5-HT2C receptor; FLIPR calcium flux, read-out: IC50 5-HT2C antagonism): > 100 µM; inhibition at 100 µM (5-HT2C receptor): 5.2%
2 | COc1ccc2cccc(CCNC(C)=O)c2c1 [Agomelatine, reference compound] | 17.6 | 24.2 | 47.5 | 41.8 | CNS+ | 17.8 ± 0.37 | 8.4 | 91.2 | 93.4 | 37.2 | reduced the expression of PSA-NCAM | no necrosis, hemorrhage or inflammatory exudates were observed | severely damaged | unchanged | PR (protection rate), Table S1 ([1]; 1.25µM): 28.1%; PR (protection rate) ([1]; 1.25 μM): 28.1%; inhibition at 100 µM (5-HT2C receptor; max tested concentration at 100μM): 66.6%

Reference: publication PMC5048153 (Scientific Reports, 2016)
